Like-named read-outs stand apart in the source and are kept apart here.
Tests used:
α1A-AR receptor [1] = biological target: T1, α1A-AR receptor (Homo sapiens, UniProt P35348); details: InsPs accumulation assay; Blue et al., Table 1; cited from earlier work
T1 sequence (P35348 1-466): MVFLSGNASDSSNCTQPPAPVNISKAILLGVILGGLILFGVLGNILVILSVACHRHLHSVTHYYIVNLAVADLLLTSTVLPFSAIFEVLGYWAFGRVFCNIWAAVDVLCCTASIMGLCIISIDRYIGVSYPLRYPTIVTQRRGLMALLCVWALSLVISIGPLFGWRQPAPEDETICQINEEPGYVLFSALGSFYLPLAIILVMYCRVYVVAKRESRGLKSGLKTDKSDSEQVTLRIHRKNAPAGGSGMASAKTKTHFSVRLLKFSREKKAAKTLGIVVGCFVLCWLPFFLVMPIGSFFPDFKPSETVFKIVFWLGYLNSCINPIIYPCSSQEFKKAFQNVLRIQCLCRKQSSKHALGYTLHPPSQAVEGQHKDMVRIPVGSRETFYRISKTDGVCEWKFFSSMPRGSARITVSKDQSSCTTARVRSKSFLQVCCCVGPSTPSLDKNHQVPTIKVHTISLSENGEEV

α1A-AR receptor [2] = biological target: T1, α1A-AR receptor; details: FLIPR assay; Blue et al., Table 1; cited from earlier work
[3] = test system: patients with symptomatic neurogenic orthostatic hypotension; assay: Treatment of patients having nOH (Example 1); type: in vivo, human; details: 5 mg oral tablets twice daily, follow-up after one week
Experimental: Patients between the age of 40 and 80 years old that have been diagnosed with symptomatic orthostatic hypotension due to pure autonomic failure, multiple system atrophy or Parkinson's disease (i.e., PD plus symptoms) present for treatment. At the time of presentation, autonomic function testing is conducted to confirm the diagnosis of autonomic dysfunction including sinus arrhythmia and the Valsalva maneuver.
The patients are given 5 mg dabuzalgron oral tablets and are instructed to take one tablet shortly after waking up in the morning and a second tablet 4-6 hours later each day.
Some patients return for a follow-up visit after one week of treatment. […] In the follow-up visit supine systolic blood pressure (SSBP) may be determined.

[4] = test system: patients with central autonomic failure; details: Ramirez et al. 2014, Shibao et al. 2007; cited from earlier work

Cc1c(OCC2=NCCN2)ccc(Cl)c1NS(C)(=O)=O [RO 115-1240 (dabuzalgron) free base, N-[6-chloro-3-(4,5-dihydro-1H-imidazol-2-ylmethoxy)-2-methylphenyl] methanesulfonamide]
intrinsic activity as compared to noradrenaline (α1A-AR receptor [1]): 0.31

Cc1c(OCC2=NCCN2)ccc(Cl)c1NS(C)(=O)=O.Cl [RO 115-1240 (dabuzalgron) HCl salt, N-[6-chloro-3-(4,5-dihydro-1H-imidazol-2-ylmethoxy)-2-methylphenyl] methanesulfonamide hydrochloride]
intrinsic activity as compared to noradrenaline (α1A-AR receptor [1]): 0.27 | intrinsic activity as compared to noradrenaline (α1A-AR receptor [2]): 0.51

Cc1c(OCC2=NCCN2)ccc(Cl)c1NS(C)(=O)=O [dabulzagron, N-[6-chloro-3-(4,5-dihydro-1H-imidazol-2-ylmethoxy)-2-methylphenyl] methanesulfonamide]
rise in SSBP compared with patients taking midodrine or droxidopa for nOH [3]: less that that observed in patients taking midodrine or droxidopa | rise in supine systolic blood pressure (SSBP) [3]: not experience a substantial rise in SSBP | symptoms of nOH as compared to the first visit before treatment [3]: improve

CNCC[C@@H](Oc1ccccc1C)c1ccccc1 [Atomoxetine]
effect on blood pressure [4]: increase blood pressure

From US11590107B2, “Methods for treating neurological disorders with α1A-AR partial agonists” (CURASEN THERAPEUTICS, INC., priority 2019, dated 2023)
